US9790253B2, “OSW-1 analogs and conjugates, and uses thereof” (priority 2011, dated 2017)
Changes are numbered by the printed parent chain.

Tests used:
OSBP1-myc-his = target: T1, OSBP1-myc-his (Homo sapiens, UniProt P22059); experiment: [3H]-25-hydroxycholesterol charcoal-dextran binding assay with OSBP1-myc-his; settings: for Ki: competition with 20 nM [3H]-25-OHC, HEK-293T S100 lysate, 4° C., 16 h, read-out: [^3H]-25-OHC K1 (nM) OSBP1-myc-his
T1 construct: made in house; host or cells: HEK-293T (transient transfection; S100 lysate, not purified)
T1 sequence (P22059 1-807): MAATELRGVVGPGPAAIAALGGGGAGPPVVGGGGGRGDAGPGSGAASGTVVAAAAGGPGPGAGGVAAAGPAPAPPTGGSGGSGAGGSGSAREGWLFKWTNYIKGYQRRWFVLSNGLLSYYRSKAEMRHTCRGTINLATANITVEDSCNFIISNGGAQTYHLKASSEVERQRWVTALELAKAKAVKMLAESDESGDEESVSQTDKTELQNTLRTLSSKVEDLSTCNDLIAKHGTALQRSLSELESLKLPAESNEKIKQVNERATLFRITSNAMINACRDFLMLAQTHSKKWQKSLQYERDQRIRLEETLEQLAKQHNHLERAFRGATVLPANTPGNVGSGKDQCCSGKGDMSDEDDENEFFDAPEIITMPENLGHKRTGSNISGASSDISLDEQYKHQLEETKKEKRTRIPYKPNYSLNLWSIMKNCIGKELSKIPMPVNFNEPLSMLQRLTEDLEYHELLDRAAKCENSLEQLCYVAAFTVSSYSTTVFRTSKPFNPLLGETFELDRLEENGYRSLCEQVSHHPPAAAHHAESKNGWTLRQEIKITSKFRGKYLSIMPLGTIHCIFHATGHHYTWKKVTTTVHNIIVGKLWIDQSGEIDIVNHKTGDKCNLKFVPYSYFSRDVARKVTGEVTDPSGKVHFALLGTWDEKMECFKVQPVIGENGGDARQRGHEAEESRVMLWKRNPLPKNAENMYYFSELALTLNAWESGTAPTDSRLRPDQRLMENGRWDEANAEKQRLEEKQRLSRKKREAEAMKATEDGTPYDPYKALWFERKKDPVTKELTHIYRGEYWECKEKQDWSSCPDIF
From the text: (§1) [^3H]-25-Hydroxycholesterol charcoal-dextran binding assay.
Methods are described above in the General Methods section.

OSBP1(M446W) = target: T2, OSBP1(M446W) (Homo sapiens, UniProt P22059, M446W); experiment: [3H]-25-OHC binding, OSBP1(M446W) mutant; settings: for binding affinity for OSBP1(M446W) compared to wt OSBP1-myc-his: [3H]-25-OHC competition binding
T2 construct: made in house; host or cells: HEK-293T (transient transfection; S100 lysate, not purified)
T2 sequence (P22059 1-807 M446W): T1 sequence (P22059 1-807) with M446W
Experimental: as §1
The binding affinity of 1, 2 and 4a to the OSBP1(M446W) and OSBP1(V582M) mutants were then determined using [^3H]-25-OHC competition binding. […] Within error limits, the binding affinity of 1, 2 and 4a for these two OSBP1 mutants were unchanged compared to wt OSBP1-myc-his (FIG. 4D).

[1] = tested on: HCT-116 p21^−/− cells with OSBP1-targeting shRNA; experiment: OSBP1 shRNA knockdown/dose-shift experiment; type: cell-based, human; settings: shOSBP1 vs shNT, 72 h
From the text: FIG. 3A is a series of four bar graphs depicting knockdown/dose-shift experiment in HCT-116 p21^−/− cells stably transfected with either OSBP1-targeting shRNA (shOSBP1) or non-targeting shRNA (shNT). Bars represent s.d. of three or four individual experiments. * P=0.0002 (n=3); ** P=0.0006 (n=4); *** P=0.0003 (n=3) compared to shNT cells (two-tailed students t-test).
To ascertain if the antiproliferative activity of the ORPphilins depended on the levels of OSBP1 and ORP4L in cells, short hairpin RNA (shRNA) knockdown of OSBP1 expression was performed and then its effect on the growth inhibitory activity of 1, 2, and 4a measured. […] Similar results were obtained in HeLa cells. Overexpression of OSBP1-myc-his or ORP4L-myc-his (FIG. 3C) for 48 h desensitized HeLa cells to the antiproliferative activity of 1, 2, or 4a by ˜2-5-fold (FIG. 3D). However, taxol-induced growth inhibition was not affected by overexpression of OSBP1-myc-his or ORP4L-myc-his (FIG. 3D).

Row | Compound | Kd (OSBP1-myc-his; direct binding) [nM] | binding affinity of 25-OHC for OSBP1(M446W) compared to wt (OSBP1(M446W)) | Ki (OSBP1-myc-his) [nM] | binding affinity for OSBP1(M446W) compared to wt OSBP1-myc-his (OSBP1(M446W)) | sensitization by OSBP1 knockdown (GI50 shift) [1] [fold]
1 | C[C@H](CCCC(C)(C)O)[C@H]1CC[C@H]2[C@@H]3CC=C4C[C@@H](O)CC[C@]4(C)[C@H]3CC[C@]12C [Compound 25-OHC, 25-hydroxycholesterol] | 32 ± 14 | identical to wt |  |  | 
2 | COc1ccc(C(=O)O[C@H]2[C@H](O[C@@H]3[C@@H](OC(C)=O)[C@H](O[C@H]4C[C@H]5[C@@H]6CC=C7C[C@@H](O)CC[C@]7(C)[C@H]6CC[C@]5(C)[C@@]4(O)[C@H](C)C(=O)CCC(C)C)OC[C@@H]3O)OC[C@@H](O)[C@@H]2O)cc1 [OSW-1] |  |  | 26 ± 9 | unchanged | 6
3 | C[C@@H]1[C@]2(O[C@H]3C=C4[C@@H]5CC[C@H]6Cc7nc8c(nc7C[C@]6(C)[C@H]5C[C@@H](O)[C@]4(C)[C@]31O)C[C@@H]1CC[C@H]3C4=CC[C@@H]5[C@H](C)[C@@]6(OC[C@]45C(=O)C[C@@H]3[C@@]1(C)C8)OC(C)(C)C[C@H]6O)O[C@](C)(CO)C[C@H]2O [cephalostatin 1, Cephalostatin 1] |  |  | 39 ± 10 | unchanged | 4
4 | schweinfurthin A |  |  | 68 ± 23 | unchanged | 9
